According to patent US9974778B2, “Substituted pyridinones as MGAT2 inhibitors” (BRISTOL-MYERS SQUIBB COMPANY, priority 2014, dated 2018):

Biological target: T1, Human MGAT-2 (Homo sapiens, UniProt Q3SYC2)
T1 construct: made in house; host or cells: Sf9 cells (membrane preparation)
Assay: MGAT LCMS Assay
Type: biochemical
Conditions: human MGAT2 membranes expressed in Sf9 cells; 100 μM 2-oleoylglycerol, 15 μM oleoyl-coenzyme A; read-out: h-MGAT LCMS IC50
Experimental: Assay plates were run through a fully automated robotics system and shaken for 5 seconds every minute for a total 10 minutes. The reactions were then quenched with 120 μL of ice cold methanol containing 1 μg/mL 1,2-distearoyl-rac-glycerol as the internal standard. Plates were shaken for 2 minutes and spun down to remove protein precipitation. After the spin, samples were transferred to LC/MS compatible PCR plates. For LC/MS analysis, a ThermoFisher Surveyor pump, utilizing a Waters […]® C8, 50×2.1 mm column, was used for the chromatography of enzyme products. The buffer system consists of 0.1% formic acid in water with a mobile phase consisting 0.1% formic acid in methanol. […] The first 0.5 minutes of each injection was diverted to waste to eliminate the presence of Phosphate buffer in the enzymatic reaction. The column was run at 0.6 mL/min and a temperature of 65° C. Mass spectrometry analysis of the samples was performed on a ThermoFisher Quantum Triple quad utilizing APCI (+) as the mode of ionization. […] The ratio of Diolein to internal standard (Peak Area Ratio) is utilized to calculate IC50 values.

T1 sequence (Q3SYC2 whole entry): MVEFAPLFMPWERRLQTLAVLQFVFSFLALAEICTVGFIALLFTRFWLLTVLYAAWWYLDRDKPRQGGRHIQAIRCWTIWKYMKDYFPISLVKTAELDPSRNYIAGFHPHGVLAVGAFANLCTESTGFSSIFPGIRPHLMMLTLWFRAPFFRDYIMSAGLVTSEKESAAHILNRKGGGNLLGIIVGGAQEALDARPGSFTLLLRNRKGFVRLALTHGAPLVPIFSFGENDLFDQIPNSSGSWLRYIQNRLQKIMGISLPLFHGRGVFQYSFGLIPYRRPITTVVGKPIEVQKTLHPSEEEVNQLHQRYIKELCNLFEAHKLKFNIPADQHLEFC

Question: With `CCc1ccc(-c2cc(-c3ccc(OCCCC(F)(F)F)cc3F)[nH]c(=O)c2-c2nn[nH]n2)s1` [Example 20, 4-(5-Ethylthiophen-2-yl)-6-(2-fluoro-4-(4,4,4-trifluorobutoxy)phenyl)-3-(2H-tetrazol-5-yl)pyridin-2(1H)-one] as the compound, how does the IC50 read?
Answer: 0.005 µM

Question: For `CCOc1cc(OCCCC(F)(F)F)ccc1-c1cc(-c2ncc(C3CC3)s2)c(C(=O)NS(C)(=O)=O)c(=O)[nH]1` [Example 143, 4-(5-Cyclopropylthiazol-2-yl)-6-(2-ethoxy-4-(4,4,4-trifluorobutoxy)phenyl)-N-(methylsulfonyl)-2-oxo-1,2-dihydropyridine-3-carboxamide], which IC50 is on record?
Answer: 0.052 µM

Question: With `CCOc1ccc(NC(=O)c2c(-c3ccc(C)cc3)c(I)c(C3CCCCC3)[nH]c2=O)cc1` [Example 15, 6-Cyclohexyl-N-(4-ethoxyphenyl)-5-iodo-2-oxo-4-(p-tolyl)-1,2-dihydropyridine-3-carboxamide] as the compound, how does the IC50 read?
Answer: 0.005 µM

Question: `CCCCCc1ccc(-c2cc(-c3ccc(C)cc3)c(-c3nn[nH]n3)c(=O)[nH]2)cc1` [Example 30, 6-(4-Pentylphenyl)-3-(2H-tetrazol-5-yl)-4-(p-tolyl)pyridin-2(1H)-one] was tested. Which IC50 did it give?
Answer: 0.15 µM

Question: For `COc1ccc(NC(=O)c2c(-c3ccc(C(C)(C)C)cc3)cc(-c3ccc(OCCCC(F)(F)F)cc3)[nH]c2=O)cc1` [Example 51, 4-(4-(tert-Butyl)phenyl)-N-(4-methoxyphenyl)-2-oxo-6-(4-(4,4,4-trifluorobutoxy)phenyl)-1,2-dihydropyridine-3-carboxamide], which IC50 is on record?
Answer: 0.417 µM

Question: `O=c1[nH]c(-c2ccc(OCCCCCC(F)(F)F)cc2F)cc(-c2nn(CC3CC3)cc2Cl)c1-n1nn[nH]c1=O` [Example 169, 4-[4-Chloro-1-(cyclopropylmethyl)-1H-pyrazol-3-yl]-6-{2-fluoro-4-[(6,6,6-trifluorohexyl)oxy]phenyl}-3-(5-oxo-4,5-dihydro-1H-1,2,3,4-tetrazol-1-yl)-1,2-dihydropyridin-2-one] was tested. Which IC50 did it give?
Answer: 0.009 µM

Question: For `O=C(Nc1ccc(OC(F)(F)F)cc1)c1c(-c2ccc(Cl)s2)cc(C2CCCCC2)[nH]c1=O` [Example 85, 4-(5-Chlorothiophen-2-yl)-6-cyclohexyl-2-oxo-N-(4-(trifluoromethoxy)phenyl)-1,2-dihydropyridine-3-carboxamide], which IC50 is on record?
Answer: 0.007 µM

Question: Which IC50 does the source give for `CC1(C)CCC(c2ccc(-c3cc(-c4ccn(CC5CC5)n4)c(-c4nn[nH]n4)c(=O)[nH]3)cc2)CC1` [Example 172, 4-[1-(Cyclopropylmethyl)-1H-pyrazol-3-yl]-6-[4-(4,4-dimethylcyclohexyl)phenyl]-3-(2H-1,2,3,4-tetrazol-5-yl)-1,2-dihydropyridin-2-one] here?
Answer: 0.026 µM

Question: With “5-Chloro-6-cyclohexyl-N-(4-methoxyphenyl)-2-oxo-4-(p- tolyl)-1,2-dihydropyridine-3-carboxamide [Example 35]” as the compound, how does the IC50 read?
Answer: 0.288 µM

Question: For `O=c1[nH]c(-c2ccc(OCCCC(F)(F)F)cc2F)cc(-c2ccc3c(c2)CCCC3)c1-c1nn[nH]n1` [Example 89, 6-(2-Fluoro-4-(4,4,4-trifluorobutoxy)phenyl)-4-(5,6,7,8-tetrahydronaphthalen-2-yl)-3-(2H-tetrazol-5-yl)pyridin-2(1H)-one], which IC50 is on record?
Answer: 0.024 µM

Question: How did the IC50 turn out when `Cc1ccc(-c2cc(-c3ccc(OCCCCCC(F)(F)F)cc3C(F)(F)F)[nH]c(=O)c2-c2nnn[nH]2)cc1` [Example 134, 3-(2H-Tetrazol-5-yl)-4-(p-tolyl)-6-(4-((6,6,6-trifluorohexyl)oxy)-2-(trifluoromethyl)phenyl)pyridin-2(1H)-one] was run?
Answer: 0.003 µM

Question: With `CCCC1CC=C(c2ccc(-c3cc(-c4ccc(CC)s4)c(-c4nn[nH]n4)c(=O)[nH]3)cc2)CC1` (stereo not drawn) [Example 164, 4-(5-Ethylthiophen-2-yl)-6-[4-(4-propylcyclohex-1-en-1-yl)phenyl]-3-(2H-1,2,3,4-tetrazol-5-yl)-1,2-dihydropyridin-2-one] as the compound, how does the IC50 read?
Answer: 0.055 µM

Question: Which IC50 does the source give for `CCc1ccc(-c2cc(-c3ccc(OCCCC(F)(F)F)cc3F)[nH]c(=O)c2C(=O)NS(C)(=O)=O)s1` [Example 135, 4-(5-Ethylthiophen-2-yl)-6-(2-fluoro-4-(4,4,4-trifluorobutoxy)phenyl)-N-(methylsulfonyl)-2-oxo-1,2-dihydropyridine-3-carboxamide] here?
Answer: 0.005 µM

Question: For `CCCC1CCC(c2ccc(-c3cc(-c4ccc(CC)s4)c(-c4nn[nH]n4)c(=O)[nH]3)cc2)CC1` (stereo not drawn) [Example 167, 4-(5-Ethylthiophen-2-yl)-6-[4-(4-propylcyclohexyl)phenyl]-3-(2H-1,2,3,4-tetrazol-5-yl)-1,2-dihydropyridin-2-one], which IC50 is on record?
Answer: 0.039 µM

Question: For `CS(=O)(=O)NC(=O)c1c(-c2ncc(C3CC3)s2)cc(-c2ccc(OCCCC(F)(F)F)cc2F)[nH]c1=O` [Example 141, 4-(5-Cyclopropylthiazol-2-yl)-6-(2-fluoro-4-(4,4,4-trifluorobutoxy)phenyl)-N-(methylsulfonyl)-2-oxo-1,2-dihydropyridine-3-carboxamide], which IC50 is on record?
Answer: 0.007 µM

Question: `CCOc1ccc(NC(=O)c2c(-c3ccc(C)cc3)cc(-c3ccc(OCCCC(F)(F)F)cc3)[nH]c2=O)cc1` [Example 5, N-(4-Ethoxyphenyl)-2-oxo-4-(p-tolyl)-6-(4-(4,4,4-trifluorobutoxy)phenyl)-1,2-dihydropyridine-3-carboxamide] was tested. Which IC50 did it give?
Answer: 0.021 µM

Question: With `O=C(NS(=O)(=O)C1CC1)c1c(-c2ncc(C3CC3)s2)cc(-c2ccc(OCCCC(F)(F)F)cc2F)[nH]c1=O` [Example 138, N-(Cyclopropylsulfonyl)-4-(5-cyclopropylthiazol-2-yl)-6-(2-fluoro-4-(4,4,4-trifluorobutoxy)phenyl)-2-oxo-1,2-dihydropyridine-3-carboxamide] as the compound, how does the IC50 read?
Answer: 0.013 µM

Question: For `CC(C)(C)C1CC=C(c2ccc(-c3cc(-c4ccn(CC5CC5)n4)c(-c4nn[nH]n4)c(=O)[nH]3)cc2)CC1` (stereo not drawn) [Example 171, 6-[4-(4-tert-Butylcyclohex-1-en-1-yl)phenyl]-4-[1-(cyclopropylmethyl)-1H-pyrazol-3-yl]-3-(2H-1,2,3,4-tetrazol-5-yl)-1,2-dihydropyridin-2-one], which IC50 is on record?
Answer: 0.006 µM

Question: For `CC(C)(C)c1ccc(-c2cc(-c3ccc(OCCCC(F)(F)F)cc3)[nH]c(=O)c2C(=O)O)cc1` [Example 11, 4-(4-(tert-Butyl)phenyl)-2-oxo-6-(4-(4,4,4-trifluorobutoxy)phenyl)-1,2-dihydropyridine-3-carboxylic acid], which IC50 is on record?
Answer: 0.461 µM

Question: How did the IC50 turn out when `O=c1[nH]c(-c2ccc(OCCCCCC(F)(F)F)cc2F)cc(-c2ccn(C3CC3)n2)c1-c1nn[nH]n1` [Example 104, 4-(1-Cyclopropyl-1H-pyrazol-3-yl)-6-(2-fluoro-4-((6,6,6-trifluorohexyl)oxy)phenyl)-3-(2H-tetrazol-5-yl)pyridin-2(1H)-one] was run?
Answer: 0.084 µM

Question: Which IC50 does the source give for `CCCCCc1ccc(-c2[nH]c(=O)c(C(=O)Nc3ccc(OCC)cc3)c(-c3ccc(C)cc3)c2-c2ccccc2)cc1` [Example 32, N-(4-Ethoxyphenyl)-2-oxo-6-(4-pentylphenyl)-5-phenyl-4-(p-tolyl)-1,2-dihydropyridine-3-carboxamide] here?
Answer: 0.193 µM

Question: With `CCc1ccc(-c2cc(-c3ccc(C4=CCC(C)(C)CC4)cc3)[nH]c(=O)c2-c2nn[nH]n2)s1` [Example 144, 6-(4′,4′-Dimethyl-2′,3′,4′,5′-tetrahydro-[1,1′-biphenyl]-4-yl)-4-(5-ethylthiophen-2-yl)-3-(2H-tetrazol-5-yl)pyridin-2(1H)-one] as the compound, how does the IC50 read?
Answer: 0.024 µM

Question: How did the IC50 turn out when `C/C=C/c1c(-c2ccc(CCCCC)cc2)[nH]c(=O)c(C(=O)Nc2ccc(OCC)cc2)c1-c1ccc(C)cc1` [Example 52] was run?
Answer: 0.003 µM

Question: `CCOc1ccc(NC(=O)c2c(-c3ccc(C)cc3)cc(-c3cnn(CCCCCC(F)(F)F)c3)[nH]c2=O)cc1` [Example 53, N-(4-Ethoxyphenyl)-2-oxo-4-(p-tolyl)-6-(1-(6,6,6-trifluorohexyl)-1H-pyrazol-4-yl)-1,2-dihydropyridine-3-carboxamide] was tested. Which IC50 did it give?
Answer: 0.267 µM

Question: How did the IC50 turn out when `O=C(NS(=O)(=O)C1CC1)c1c(-c2ccn(CC3CC3)n2)cc(-c2ccc(OCCCCCC(F)(F)F)cc2C(F)(F)F)[nH]c1=O` [Example 160, N-(Cyclopropanesulfonyl)-4-[1-(cyclopropylmethyl)-1H-pyrazol-3-yl]-2-oxo-6-{4-[(6,6,6-trifluorohexyl)oxy]-2-(trifluoromethyl)phenyl}-1,2-dihydropyridine-3-carboxamide] was run?
Answer: 0.012 µM

Question: How did the IC50 turn out when `Cc1ccc(-c2cc(C3CCCCC3)[nH]c(=O)c2C(=O)Nc2cccnc2)cc1` [Example 37, 6-Cyclohexyl-2-oxo-N-(pyridin-3-yl)-4-(p-tolyl)-1,2-dihydropyridine-3-carboxamide] was run?
Answer: 0.543 µM

Question: Which IC50 does the source give for `CCOc1ccc(NC(=O)c2c(-c3ccc(C)cc3)cc(C3CCCC3)[nH]c2=O)cc1` [Example 29, 6-Cyclopentyl-N-(4-ethoxyphenyl)-2-oxo-4-(p-tolyl)-1,2-dihydropyridine-3-carboxamide] here?
Answer: 0.144 µM

Question: With `CCOc1ccc(NC(=O)c2c(-c3cnc(N(C)C)s3)cc(-c3ccc(OCCCC(F)(F)F)cc3)[nH]c2=O)cc1` [Example 67] as the compound, how does the IC50 read?
Answer: 0.002 µM

Question: How did the IC50 turn out when `CCOc1cc(OCCCC(F)(F)F)ccc1-c1cc(-c2ccc(C)cc2)c(C(=O)NS(=O)(=O)C2CC2)c(=O)[nH]1` [Example 126, N-(Cyclopropylsulfonyl)-6-(2-ethoxy-4-(4,4,4-trifluorobutoxy)phenyl)-2-oxo-4-(p-tolyl)-1,2-dihydropyridine-3-carboxamide] was run?
Answer: 0.043 µM

Question: How did the IC50 turn out when `O=c1[nH]c(-c2ccc(OCCCCCC(F)(F)F)cc2)cc(-c2nn(CC3CC3)cc2Cl)c1-n1nn[nH]c1=O` [Example 158, 4-[4-Chloro-1-(cyclopropylmethyl)-1H-pyrazol-3-yl]-3-(5-oxo-4,5-dihydro-1H-1,2,3,4-tetrazol-1-yl)-6-{4-[(6,6,6-trifluorohexyl)oxy]phenyl}-1,2-dihydropyridin-2-one] was run?
Answer: 0.006 µM
